What all share (format): cell-based
Test [1] concerns SW1990 pancreatic cancer cells. Nature of the test: SRB analysis 2. The note with it: 48 hours.
Test [2] concerns Panc-1 pancreatic cancer cells. Put plainly: SRB analysis 2. The note with it: 48 hours.
The test system of test [3] is HCT-116 colon cancer cell line. Nature of the test: SRB analysis 3. The note with it: 48 hours. Put shortly: (§1)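 Growth effect of combined CAC inhibitor omeprazole, ACAA inhibitor trimetazidine and a third anticancer drug is measured by sulforhodamine B staining over 48 h exposure. Values are GI50, TGI or LC50 from triplicate runs.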
Test [4] relates to UACC62 melanoma cell line. Put plainly: SRB analysis 3. The note with it: 48 hours. Put shortly:
as §1

The subject of test [5] is SK-OV-3 ovarian cancer cell line. Put plainly: SRB analysis 3. The conditions noted are these: 48 hours. Put shortly: as §1
Test [6] relates to H1975 non-small cell lung cancer (NSCLC) cell line. Put plainly: SRB analysis 3. The conditions noted are these: 48 hours. The procedure, abridged: as §1
Test [7] concerns OVCAR-8 ovarian cancer cell line. Put plainly: SRB analysis 3. The note with it: 48 hours. The procedure, abridged:
as §1

Test [8] relates to PC-3 prostate cancer cell line. Put plainly: SRB analysis 3. The conditions noted are these: 48 hours. Put shortly: as §1
In test [9] the test system is AGS gastric cancer cell line. Nature of the test: SRB analysis 3. The note with it: 48 hours. Put shortly:
as §1

In test [10] the test system is MIA PaCa-2 pancreatic cancer (PDAC) cell line. Nature of the test: SRB analysis 3. The conditions noted are these: 48 hours. Put shortly: as §1
Test [11] concerns SK-hep-1 liver cancer cell line. Nature of the test: SRB analysis 3. The note with it: 48 hours. Put shortly: as §1
Test [12] deals with Caki-1 renal cancer cell line. Put plainly: SRB analysis 3. The conditions noted are these: 48 hours. Put shortly: as §1
The test system of test [13] is ACHN renal cancer cell line. Nature of the test: SRB analysis 3. The conditions noted are these: 48 hours. Put shortly:
as §1

Test [14] relates to MKN45 gastric cancer cell line. Put plainly: SRB analysis 3. The conditions noted are these: MKN45, 48 hours. Put shortly:
as §1

The subject of test [15] is MDA-MB-231 breast cancer cell line. Put plainly: SRB analysis 3. The note with it: 48 hours. Put shortly: as §1
Test [16] deals with A549 non-small cell lung cancer (NSCLC) cell line. Nature of the test: SRB analysis 3. The note with it: 48 hours. The procedure, abridged: as §1
Test [17] concerns COLO-205 colon cancer cell line. Put plainly: SRB analysis 3. The conditions noted are these: 48 hours. Put shortly:
as §1

Test [18] concerns AsPC-1 pancreatic cancer (PDAC) cell line. Nature of the test: SRB analysis 3. The conditions noted are these: 48 hours. Put shortly:
as §1

In test [19] the test system is Huh-7 liver cancer cell line. Nature of the test: SRB analysis 3. The conditions noted are these: 48 hours. Put shortly: as §1
The test system of test [20] is DU145 prostate cancer cell line. Nature of the test: SRB analysis 3. The note with it: 48 hours. The procedure, abridged:
as §1

A further test has as its system A375 melanoma cell line. Put plainly: SRB analysis 3. The conditions noted are these: 48 hours. Put shortly: as §1
Test [21] deals with MCF7 breast cancer cell line. Nature of the test: SRB analysis 3. The conditions noted are these: 48 hours. The procedure, abridged:
as §1

Values joined by “and” are separate entries in the source; they are usually repeats but may differ in a detail not shown here. Identical values can stand only once.

Consider `COc1ccc2[nH]c([S+]([O-])Cc3ncc(C)c(OC)c3C)nc2c1` (centres unmarked) [KN510, omeprazole], for which the “degree of cell growth based on the control (100%)” value turned out to be 90.16% in test [1] (KN510 100 μM), 63.83% in test [1] (KN510 200 μM), 63.06% in test [2] (KN510 100 μM) and 19.45% in [2] (KN510 200 μM). Also, the “cell growth (Control = 100)” value worked out at 79.65 in [3] (KN510 100 μM); 50.83 in test [4] (KN510 100 μM); 85.06 in [5] (KN510 100 μM); 84.1319 in [6] (KN510 100 μM); 68.75 in test [7] (KN510 100 μM); 59.63 in test [8] (KN510 100 μM). Also, the “cell growth (Control = 100)” value in [9] (KN510 100 μM) turned out to be 65.05; in test [10] (KN510 100 μM), 65.94; in [11] (KN510 100 μM), 60.38; in test [12] (KN510 100 μM), 102.1283; in test [13] (KN510 100 μM), 61.17; in test [14] (KN510 100 μM), 62.39. Moreover, the “cell growth (Control = 100)” value in test [15] (KN510 100 μM) is 86.99; in test [16] (KN510 100 μM) it was 55.4 and 30.1; in test [17] (KN510 100 μM), 78.03; in [18] (KN510 100 μM), 65.83; in test [19] (KN510 100 μM), 77.73; in [20] (KN510 100 μM), 76.71. The “cell growth (Control = 100)” value in the test with A375 melanoma cell line (KN510 100 μM) is 79.18; in test [21] (KN510 100 μM), 70.3.
For the compound `COc1ccc(CN2CCNCC2)c(OC)c1OC` [KN713, trimetazidine], the “cell growth (Control = 100)” value in test [3] (KN713 2.5 mM) is given as 36.64; in test [4] (KN713 2.5 mM), 54.65; in test [5] (KN713 2.5 mM), 83.37; in test [6] (KN713 2.5 mM), 62.58; in test [7] (KN713 2.5 mM), 72.86; in test [8] (KN713 2.5 mM) it was 45.06. Moreover, the “cell growth (Control = 100)” value is given as 60.34 in test [9] (KN713 2.5 mM); 39.45 in test [10] (KN713 2.5 mM); 157.7818 in test [11] (KN713 2.5 mM); 47.58 in test [12] (KN713 2.5 mM); 65.67 in test [13] (KN713 2.5 mM); 72.85 in test [14] (KN713 2.5 mM). For the same compound, the “cell growth (Control = 100)” value in test [15] (KN713 2.5 mM) was 74.5469; in [16] (KN713 2.5 mM), 68.8 and 79.2; in [17] (KN713 2.5 mM), 31.62; in [18] (KN713 2.5 mM), 58.71; in test [19] (KN713 2.5 mM), 52.09; in [20] (KN713 2.5 mM) it was 55.68. Further, the “cell growth (Control = 100)” value stood at 70.33 in the test on A375 melanoma cell line (KN713 2.5 mM) and 60.36 in [21] (KN713 2.5 mM).

The record behind these values is patent US12728119B2, “Pharmaceutical composition for preventing or treating cancer comprising 3-ketoacyl CoA thiolase inhibitor and carnitine acylcarnitine carrier inhibitor” (NATIONAL CANCER CENTER, priority 2020, dated 2026).
